How the values were obtained:
[1] = system: human lung tumors (wild type EGFR, L858R mutated or exon 19 deleted EGFR); experiment: autoradiography on human frozen tumor sections
Text: Three types of human lung tumors were included: tumors harboring wild type EGFR and tumors carrying L858R mutated or exon 19 deleted EGFR genes.

[2] = target: T1, NCI-H1975 tumor homogenates (activated EGFR) (Homo sapiens, UniProt P00533, L858R/T790M); experiment: binding competition and binding kinetic on tumor homogenates
T1 construct: from tissue; host or cells: NCI-H1975 tumor homogenate
Protocol: (§1) FIG. 2: Binding affinity constant of Compound (II) determined in competition experiments on NCI-H3255 (A) and NCI-H1975 (B) tumor extracts. NCI-H3255 and NCI-H1975 tumor extracts were incubated at room temperature for 90 min with Compound (II) (0.1-0.3 nM) and with increasing concentrations of Compound (IIa) (0.25 nM to 1 μM).
(§2) FIG. 3: Binding kinetic of Compound (II) evaluated on NCI-H3255 (A) and NCI-H1975 (B) tumor extracts. Compound (II) (1.5-2.5 nM) was incubated with extracts for 2 to 90 minutes at room temperature. Non-specific binding was evaluated in the presence of a>100 fold excess Compound (IIa).
(§3) Similar experiments were performed on NCI-H3255 and NCI-H1975 tumor homogenates (FIG. 2). […] The number of binding sites was 1.1±1.5×10^9 and 1.6±1.8×10^9 sites/μg protein respectively in NCI-H3255 and NCI-H1975 tumor homogenates.
(§4) The binding kinetic of Compound (I) was also assessed in NCI-H3255 and NCI-H1975 tumor homogenates (FIG. 3).

[3] = target: T2, NCI-H3255 tumor homogenates (activated EGFR) (Homo sapiens, UniProt P00533, L858R); experiment: as above
T2 construct: from tissue; host or cells: NCI-H3255 tumor homogenate
T2 sequence (P00533 25-1210 L858R): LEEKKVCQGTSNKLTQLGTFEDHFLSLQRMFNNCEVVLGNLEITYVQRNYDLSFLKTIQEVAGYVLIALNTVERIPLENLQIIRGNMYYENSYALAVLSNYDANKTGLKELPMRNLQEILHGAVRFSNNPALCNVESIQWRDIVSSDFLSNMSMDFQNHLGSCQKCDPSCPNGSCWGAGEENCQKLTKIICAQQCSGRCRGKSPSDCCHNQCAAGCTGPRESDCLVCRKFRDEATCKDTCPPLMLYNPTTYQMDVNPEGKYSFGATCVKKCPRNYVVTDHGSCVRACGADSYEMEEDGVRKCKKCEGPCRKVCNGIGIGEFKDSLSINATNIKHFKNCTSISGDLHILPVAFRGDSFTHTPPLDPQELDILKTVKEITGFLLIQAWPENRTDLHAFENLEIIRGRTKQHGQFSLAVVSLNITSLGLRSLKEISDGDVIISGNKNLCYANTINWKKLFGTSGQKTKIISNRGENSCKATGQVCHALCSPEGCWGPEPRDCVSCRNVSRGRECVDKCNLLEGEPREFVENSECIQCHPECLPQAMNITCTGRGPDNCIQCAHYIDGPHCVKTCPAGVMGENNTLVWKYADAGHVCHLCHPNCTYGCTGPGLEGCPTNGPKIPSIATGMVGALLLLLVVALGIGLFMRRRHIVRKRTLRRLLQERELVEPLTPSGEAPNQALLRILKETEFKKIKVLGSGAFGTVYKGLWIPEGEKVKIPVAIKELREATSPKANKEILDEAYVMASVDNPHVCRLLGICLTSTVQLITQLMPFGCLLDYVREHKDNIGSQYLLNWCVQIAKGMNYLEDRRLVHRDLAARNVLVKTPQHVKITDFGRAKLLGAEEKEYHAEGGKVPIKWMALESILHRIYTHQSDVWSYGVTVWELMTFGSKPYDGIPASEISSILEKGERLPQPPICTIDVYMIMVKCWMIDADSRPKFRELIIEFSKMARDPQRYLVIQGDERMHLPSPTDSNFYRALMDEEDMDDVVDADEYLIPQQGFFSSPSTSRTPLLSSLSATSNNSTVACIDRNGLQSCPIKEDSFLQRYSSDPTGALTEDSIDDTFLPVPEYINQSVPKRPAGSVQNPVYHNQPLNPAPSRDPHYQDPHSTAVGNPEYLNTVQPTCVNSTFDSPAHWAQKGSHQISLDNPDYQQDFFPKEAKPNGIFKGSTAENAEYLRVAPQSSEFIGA
Protocol: as §1, §2, §3, §4

[4] = radiochemical stability in vehicle by HPLC; assay type: physicochemical; conditions: room temperature, vehicle physiologic serum/ethanol 87.5/12.5
Protocol: By this method, the final radiolabeled compound can be obtained with a radiochemical purity greater than 98% in 100-110 min with a yield that can reach 25% (decay corrected). It has been noticed that an uncompleted evaporation of the solvents used for the purification of [^18F]Fluoroethyltosylate hampers the second step and conducts to lower yields. Specific activity of productions was in the range of […]. The radiolabeled compound is stable in the conditions of formulation as radiochemical purity still greater than 95% 20 h after production with a storage at room temperature.
After radiosynthesis, the stability of the radiotracer was evaluated by HPLC both in its vehicle and in rat plasma. Compound (I) was formulated in physiologic serum/ethanol with the respective proportion 87.5/12.5 (v/v). A mixture of compounds (I) (i.e. radiolabelled) and (Ia) (i.e. cold analogue) was stable for up to 20 hours at room temperature in its vehicle, only one peak being detected at the expected retention time. In rat plasma two peaks were detected: one at 3.15 minutes and one at 8.02 minutes (corresponding to a mixture of compounds (I) and (Ia)) after an incubation at +37° C. for 4 hours.

[5] = target: T3, NCI-H3255 tumor cell homogenates (activated EGFR) (Homo sapiens, UniProt P00533, L858R); experiment: binding competition on tumor cell homogenates
T3 construct: endogenous in cells; host or cells: NCI-H3255
T3 sequence (P00533 25-1210 L858R): as above
Protocol: (§5) FIG. 1: Binding affinity constant of Compound (II) determined in competition experiments on NCI-H3255 (A) and NCI-H441 (B) cell line extracts. NCI-H3255 and NCI-H441 cell line extracts were incubated at room temperature for 90 min with Compound (II) (0.5-0.7 nM) and with increasing concentrations of Compound (IIa) (0.05 nM to 10 μM).
(§6) The binding affinity of Compound (I) and the number of binding sites were first evaluated on NCI-H3255 and NCI-H441 tumor cell homogenates (FIG. 1). […] The number of binding sites was of the same order of magnitude (6.1±0.5×10^9 sites/μg protein).

[6] = target: T4, NCI-H441 tumor cell homogenates (activated EGFR) (Homo sapiens, UniProt P00533); experiment: binding competition on tumor cell homogenates
T4 construct: endogenous in cells; host or cells: NCI-H441
T4 sequence (P00533 25-1210): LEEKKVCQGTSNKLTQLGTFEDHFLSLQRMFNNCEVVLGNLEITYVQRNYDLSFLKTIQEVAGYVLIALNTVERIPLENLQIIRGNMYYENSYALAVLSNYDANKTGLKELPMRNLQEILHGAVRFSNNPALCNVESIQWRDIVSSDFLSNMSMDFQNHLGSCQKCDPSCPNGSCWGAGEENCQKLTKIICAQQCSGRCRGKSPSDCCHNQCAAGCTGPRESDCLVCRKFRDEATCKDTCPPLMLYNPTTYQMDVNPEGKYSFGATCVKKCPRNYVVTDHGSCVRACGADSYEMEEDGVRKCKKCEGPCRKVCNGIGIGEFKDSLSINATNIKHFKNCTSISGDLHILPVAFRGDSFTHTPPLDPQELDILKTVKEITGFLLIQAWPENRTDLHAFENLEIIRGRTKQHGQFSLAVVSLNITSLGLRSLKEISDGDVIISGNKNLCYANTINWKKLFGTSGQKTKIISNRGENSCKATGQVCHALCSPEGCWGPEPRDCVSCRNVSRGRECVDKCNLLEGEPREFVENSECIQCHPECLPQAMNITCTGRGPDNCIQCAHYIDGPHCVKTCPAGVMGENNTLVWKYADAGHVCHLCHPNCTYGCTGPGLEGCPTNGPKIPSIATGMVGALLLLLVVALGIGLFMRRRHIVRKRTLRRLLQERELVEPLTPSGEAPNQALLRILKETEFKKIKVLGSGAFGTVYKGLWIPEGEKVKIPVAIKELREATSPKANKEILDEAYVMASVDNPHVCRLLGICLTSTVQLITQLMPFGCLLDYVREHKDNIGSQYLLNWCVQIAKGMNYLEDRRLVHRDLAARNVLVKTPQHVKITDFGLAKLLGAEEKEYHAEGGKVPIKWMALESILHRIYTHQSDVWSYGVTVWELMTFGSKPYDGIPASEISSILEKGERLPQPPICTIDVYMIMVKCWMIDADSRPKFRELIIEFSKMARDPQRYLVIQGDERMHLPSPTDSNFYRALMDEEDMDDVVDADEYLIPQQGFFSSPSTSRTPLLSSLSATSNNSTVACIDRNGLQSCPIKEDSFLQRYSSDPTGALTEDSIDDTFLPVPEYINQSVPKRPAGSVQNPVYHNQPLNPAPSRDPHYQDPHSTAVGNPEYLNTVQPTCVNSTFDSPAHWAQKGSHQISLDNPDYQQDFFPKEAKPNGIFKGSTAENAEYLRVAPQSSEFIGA
Protocol: as §5, §6

[7] = biodistribution by ex vivo γ-counting in Sprague Dawley rats
Protocol: To evaluate the biodistribution of the pure S (II) and R (III) enantiomers compared to compound (I), dynamic PET scan imaging and ex vivo gamma counting were performed on Sprague Dawley rats. Animals were injected with the radiotracer solution diluted in NaCl 0.9% to prepare a solution of activity 4-6 MBq (gamma-counting experiments) or 11-13 MBq (PET imaging experiments) in a volume of 300-400 or 600-800 μL, respectively. Radioactivity content in all biological samples was determined with scintillation γ-counter (Cobra 4180, Perkin-Elmer Inc.).
At the light of the biodistribution data of compound (I), the biodistribution of the R (III)- and S (II)-enantiomers was assessed by γ-counting in the organs in which the accumulation of compound (I) was prominent (that is: blood, heart, kidneys, liver, stomach, small intestine and colon). Two timepoints were selected: 5 and 30 minutes post-injection. […] The higher uptakes of R enantiomer (III) and S enantiomer (II) in these organs were expected to be observed at early timepoints after injection, giving the highest signals in the γ-counter and therefore making the comparison of biodistribution data more relevant. Besides, as PET images were acquired with compound (I), PET imaging was included in the evaluation of the biodistribution of R enantiomer and S enantiomer. This gave the opportunity to had one additional timepoint at 4 hours post-injection for collection of major organs and determination of radioactivity content by ex vivo γ-counting.

[8] = read-out: dissociation constant (Koff) (converted)
[9] = read-out: binding affinity (Kd)

T1 sequence (P00533 25-1210 T790M/L858R): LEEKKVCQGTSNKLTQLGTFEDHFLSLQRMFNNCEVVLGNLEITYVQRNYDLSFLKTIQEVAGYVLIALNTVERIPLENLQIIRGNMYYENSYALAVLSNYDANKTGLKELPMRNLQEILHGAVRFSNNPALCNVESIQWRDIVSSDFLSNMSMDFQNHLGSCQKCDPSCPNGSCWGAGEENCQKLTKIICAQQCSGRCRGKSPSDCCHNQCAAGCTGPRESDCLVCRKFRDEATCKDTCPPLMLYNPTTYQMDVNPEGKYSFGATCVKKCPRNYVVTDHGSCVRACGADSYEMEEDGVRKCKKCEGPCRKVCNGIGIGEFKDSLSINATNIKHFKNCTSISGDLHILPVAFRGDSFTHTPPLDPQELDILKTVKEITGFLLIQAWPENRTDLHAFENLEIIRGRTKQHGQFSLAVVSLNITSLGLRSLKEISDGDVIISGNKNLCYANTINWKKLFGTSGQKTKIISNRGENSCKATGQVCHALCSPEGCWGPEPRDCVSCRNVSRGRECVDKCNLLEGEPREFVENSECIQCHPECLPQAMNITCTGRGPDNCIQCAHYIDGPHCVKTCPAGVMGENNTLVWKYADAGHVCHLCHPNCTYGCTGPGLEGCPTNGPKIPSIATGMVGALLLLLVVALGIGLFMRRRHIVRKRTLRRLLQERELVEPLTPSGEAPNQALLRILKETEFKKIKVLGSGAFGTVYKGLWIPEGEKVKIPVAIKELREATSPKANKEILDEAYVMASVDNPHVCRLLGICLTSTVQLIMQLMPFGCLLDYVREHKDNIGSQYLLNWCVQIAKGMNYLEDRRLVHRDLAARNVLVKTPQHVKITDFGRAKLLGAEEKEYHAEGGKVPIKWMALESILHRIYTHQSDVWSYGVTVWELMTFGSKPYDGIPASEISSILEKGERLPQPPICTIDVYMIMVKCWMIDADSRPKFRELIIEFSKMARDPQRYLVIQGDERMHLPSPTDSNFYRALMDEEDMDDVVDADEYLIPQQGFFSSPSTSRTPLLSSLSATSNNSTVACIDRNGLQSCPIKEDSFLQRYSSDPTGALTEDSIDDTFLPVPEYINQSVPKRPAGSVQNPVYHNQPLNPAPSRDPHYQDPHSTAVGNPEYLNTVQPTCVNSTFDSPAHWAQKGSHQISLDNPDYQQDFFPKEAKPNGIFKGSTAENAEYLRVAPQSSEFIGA

Compound: CC(C)C1NC(=O)Cc2ccc(Cl)cc2Nc2ncnc3cc(OCC[18F])c(cc23)OCCCNC1=O (stereo not shown) [Compound (I)]
- specific binding on frozen tumor sections [1]: specific binding of Compound (I) was observed on all tumor types
- number of binding sites [2]: 1.6±1.8×10^9 sites/μg protein
- Kd ([2]; read-out: binding affinity): 4.7 ± 2 nM
- koff [2, 8]: 0.0045 s⁻¹
- number of binding sites [3]: 1.1±1.5×10^9 sites/μg protein
- Kd ([3]; read-out: binding affinity): 2.8 ± 2.4 nM
- koff [3, 8]: 0.0019 s⁻¹
- Radiochemical stability [4]: >20 h
- number of binding sites [5]: 9.1±3.1×10^9 sites/μg protein
- Kd [5, 9]: 23.8 ± 9 nM
- number of binding sites [6]: 6.1±0.5×10^9 sites/μg protein
- Kd [6, 9]: 25.8 ± 11.1 nM
- uptake in liver ([7]; 5 minutes post injection): 1.66±0.43 % ID/g
- uptake in small intestine ([7]; 5 minutes post injection): 0.28±0.15 % ID/g
- uptake in blood ([7]; 5 minutes post-injection): 0.13±0.02 % ID/g
- uptake in heart ([7]; 5 minutes post-injection): 0.91±0.12 % ID/g
- uptake in kidneys ([7]; 5 minutes post-injection): 5.07±0.30 % ID/g
- uptake in stomach ([7]; 5 minutes post-injection, unit printed as %): 1.27±2.13%
- uptake in liver ([7]; 30 minutes post injection): 0.37±0.07 % ID/g
- uptake in heart ([7]; 30 minutes post-injection): 0.23±0.05 % ID/g
- uptake in kidneys ([7]; 30 minutes timepoint): 1.47±0.36 % ID/g
- uptake in stomach ([7]; 30 minutes timepoint): 2.72±4.75 % ID/g
- uptake in colon ([7]; four hours post-injection): 10.55±4.53 % ID/g
- uptake in stomach ([7]; four hours post-injection): 0.14±0.23 % ID/g
- uptake in small intestine ([7]; thirty minutes post-injection): 0.40±0.40 % ID/g

Reference: patent US10716869B2, “Radiolabeled macrocyclic EGFR inhibitor” (Oncodesign SA, priority 2016, dated 2020)
